These molecules were tested against T1, hTLR9 (Homo sapiens, UniProt Q9NR96) (assay: hTLR9 antagonism (SEAP inhibition assay) in HEK-Blue-hTLR9 (HEK293) cells, ODN-2006 stimulated). Conditions: HEK-Blue hTLR9, 1 μM; SEAP, HEK-Blue-hTLR9 cells; read-out: hTLR9 inhibitory activity (% at 1 μM).
T1 construct: expressed in transfected cells; host or cells: HEK-Blue-hTLR9 cells (HEK293)
T1 sequence (Q9NR96 26-1032): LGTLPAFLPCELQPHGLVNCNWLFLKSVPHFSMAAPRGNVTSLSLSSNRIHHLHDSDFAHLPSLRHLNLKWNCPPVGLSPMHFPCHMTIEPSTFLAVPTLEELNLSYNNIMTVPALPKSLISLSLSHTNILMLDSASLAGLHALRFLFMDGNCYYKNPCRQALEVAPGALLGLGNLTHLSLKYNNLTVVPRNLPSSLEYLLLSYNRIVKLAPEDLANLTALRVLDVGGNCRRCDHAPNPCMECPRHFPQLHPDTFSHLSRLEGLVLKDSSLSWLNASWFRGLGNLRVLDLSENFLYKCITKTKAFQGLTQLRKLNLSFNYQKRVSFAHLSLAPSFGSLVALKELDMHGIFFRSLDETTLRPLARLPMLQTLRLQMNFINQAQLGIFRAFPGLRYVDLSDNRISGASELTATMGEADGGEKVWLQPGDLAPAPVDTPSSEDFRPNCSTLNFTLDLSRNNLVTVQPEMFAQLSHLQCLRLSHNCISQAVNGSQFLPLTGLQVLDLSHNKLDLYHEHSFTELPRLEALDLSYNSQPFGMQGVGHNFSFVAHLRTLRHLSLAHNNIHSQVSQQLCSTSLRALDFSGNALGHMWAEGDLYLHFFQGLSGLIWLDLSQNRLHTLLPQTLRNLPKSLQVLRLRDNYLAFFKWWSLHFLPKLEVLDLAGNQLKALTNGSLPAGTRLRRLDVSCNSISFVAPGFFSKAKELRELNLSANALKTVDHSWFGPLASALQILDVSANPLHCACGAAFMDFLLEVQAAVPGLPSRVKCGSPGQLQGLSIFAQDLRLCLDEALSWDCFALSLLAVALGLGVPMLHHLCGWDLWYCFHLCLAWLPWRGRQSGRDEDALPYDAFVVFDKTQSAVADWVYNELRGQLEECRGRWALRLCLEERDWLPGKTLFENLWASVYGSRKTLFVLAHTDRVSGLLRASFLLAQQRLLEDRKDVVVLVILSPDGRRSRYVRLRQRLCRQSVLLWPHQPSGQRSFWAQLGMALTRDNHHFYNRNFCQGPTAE
Format: cell-based
Protocol: hTLR9 Antagonism (SEAP Inhibition Assay) in HEK293 Cell Lines
The SEAP reporter gene in HEK-Blue™-hTLR9 cells is placed under the control of the IFN-b minimal promoter fused to five NF-kB and AP-1 binding sites. The stimulation with a TLR9 ligand (ODN-2006) activates NF-kB and AP-1 which induces the production of SEAP. Levels of SEAP are determined with QUANTI-Blue™ detection medium that turns purple/blue in the presence of alkaline phosphatase. Decrease in the levels of SEAP production as indicated by reduction in absorbance at 650 nm is directly co-related with the TLR9 inhibitory activity of the antagonist (NCE).
HEK-Blue™-hTLR9 cells were maintained in DMEM with 10% FBS, 1% Penicillin/Streptomycin/Amphotericin (complete growth medium) and 0.2% Normocin. For the assay, cells were dissociated by washing in 1×PBS and re-suspended in complete DMEM. Cells were seeded at a density of 20000 cells per well; (40 μl per well) in a 384 well assay plate.
5 μl of 10× antagonist (NCE) was added to the cells in triplicates for each concentration. The plate was incubated for half an hour at 37° C. with 5% CO2. 5 μl of agonist (ODN-2006) was added and the plate was incubated overnight for 18 hours at 37° C. with 5% CO2. 5 μl of supernatant was transferred to a 384 well reading plate and to this 45 μl of Quanti-Blue™ detection reagent was added. The plate was then incubated for an hour at 37° C. SEAP activity in the supernatant was indicated by change in the pink color of Quanti-Blue™ detection reagent to purple/blue and the absorbance was read at 650 nm in the end point mode.

Row | Compound | inhibition at 1 µM [%]
1 | CN1CCN(C(=O)c2ccc(-c3nccc4[nH]c(CN5CCOCC5)cc34)cc2)CC1 [Example A22, (4-methylpiperazin-1-yl)-[4-[2-(morpholinomethyl)-1H-pyrrolo[3,2-c]pyridin-4-yl]phenyl] methanone] | 62
2 | C1=C(c2ccc(-c3nccc4[nH]c(CN5CCOCC5)cc34)cc2)CCN(C2COC2)C1 [Example A11, 4-[[4-[4-[1-(oxetan-3-yl)-3,6-dihydro-2H-pyridin-4-yl]phenyl]-1H-pyrrolo[3,2-c]pyridin-2-yl]methyl] morpholine] | 77.5
3 | c1cc2[nH]c(CN3CCOCC3)cc2c(-c2ccc(N3CCN(Cc4cocn4)CC3)cc2)n1 [Example A76, 4-[[4-[4-[4-(oxazol-4-ylmethyl)piperazin-1-yl]phenyl]-1H-pyrrolo[3,2-c]pyridin-2-yl]methyl]morpholine] | 81.2
4 | COC(=O)C1CCN(c2ccc(-c3nccc4[nH]c(CN5CCOCC5)cc34)cc2)CC1 [Example A67, methyl 1-[4-[2-(morpholinomethyl)-1H-pyrrolo[3,2-c]pyridin-4-yl]phenyl]piperidine-4-carboxylate] | 27.5
5 | Cc1nc(-c2ccc(N3CCN(C(C)C)CC3)cc2)c2cc(CCN3CCCCC3)[nH]c2c1C [Example B9, 4-[4-(4-isopropylpiperazin-1-yl)phenyl]-6,7-dimethyl-2-[2-(1-piperidyl)ethyl]-1H-pyrrolo[3,2-c]pyridine] | 95.2
6 | CC(C)N1CCN(c2ccc(-c3nccc4[nH]c(CN5CCC(F)(F)C5)cc34)cc2)CC1 [Example A18, 2-[(3,3-difluoropyrrolidin-1-yl)methyl]-4-[4-(4-isopropylpiperazin-1-yl)phenyl]-1H-pyrrolo[3,2-c]pyridine] | 100
7 | Cc1cc2[nH]c(CCCN3CCOCC3)cc2c(-c2ccc(N3CCN(C)CC3)cc2)n1 [Example C4, 4-[3-[6-methyl-4-[4-(4-methylpiperazin-1-yl)phenyl]-1H-pyrrolo[3,2-c]pyridin-2-yl]propyl]morpholine] | 98.7
8 | Cc1cc2[nH]c(CN3CCC(F)CC3)cc2c(-c2ccc(N3CCN(C(C)C)CC3)cc2)n1 [Example A27, 2-[(4-fluoro-1-piperidyl)methyl]-4-[4-(4-isopropylpiperazin-1-yl)phenyl]-6-methyl-1H-pyrrolo[3,2-c]pyridine] | 96.4
9 | c1cc2[nH]c(CN3CCOCC3)cc2c(-c2ccc(C3CCN(C4COC4)CC3)cc2)n1 [Example A65, 4-[[4-[4-[1-(oxetan-3-yl)-4-piperidyl]phenyl]-1H-pyrrolo[3,2-c]pyridin-2-yl]methyl] morpholine] | 70.5
10 | CC(C)N1CCN(C2CCC(c3nccc4[nH]c(CN5CCOCC5)cc34)CC2)CC1 (stereo not drawn) [Example A79, 4-[[4-[4-(4-isopropylpiperazin-1-yl)cyclohexyl]-1H-pyrrolo[3,2-c]pyridin-2-yl]methyl]morpholine] | 100
11 | CN1CCN(c2ccc(-c3nccc4[nH]c(CN5CCOCC5)cc34)cn2)CC1 [Example A59, 4-[[4-[6-(4-methylpiperazin-1-yl)-3-pyridyl]-1H-pyrrolo[3,2-c]pyridin-2-yl]methyl]morpholine] | 94.7
12 | O=C(O)C1CCN(c2ccc(-c3nccc4[nH]c(CN5CCOCC5)cc34)cc2)CC1 [Example A68, 1-[4-[2-(morpholinomethyl)-1H-pyrrolo[3,2-c]pyridin-4-yl]phenyl]piperidine-4-carboxylic acid] | 21
13 | CC(C)N1CCN(c2ccc(-c3nccc4[nH]c(CN5CCOCC5)c(Cl)c34)cc2)CC1 [Example A71, 4-[[3-chloro-4-[4-(4-isopropylpiperazin-1-yl)phenyl]-1H-pyrrolo[3,2-c]pyridin-2-yl]methyl]morpholine] | 86.1
14 | CN1CCN(c2ccc(-c3nc(C(F)(F)F)cc4[nH]c(CN5CCOCC5)cc34)cc2)CC1 [Example A31, 4-[[4-[4-(4-methylpiperazin-1-yl)phenyl]-6-(trifluoromethyl)-1H-pyrrolo[3,2-c]pyridin-2-yl]methyl] morpholine] | 66
15 | OC1CCN(c2ccc(-c3nccc4[nH]c(CN5CCOCC5)cc34)cc2)CC1 [Example A69, 1-[4-[2-(morpholinomethyl)-1H-pyrrolo[3,2-c]pyridin-4-yl]phenyl]piperidin-4-ol] | 73.5
16 | c1cc(-c2nccc3[nH]c(CN4CCOCC4)cc23)cc(N2CCNCC2)c1 [Example A46, 4-[[4-(3-(piperazin-1-yl)phenyl)-1H-pyrrolo[3,2-c]pyridin-2-yl]methyl] morpholine] | 83.5
17 | FC(F)(F)CN1CCN(c2ccc(-c3nccc4[nH]c(CN5CCOCC5)cc34)cc2)CC1 [Example A75, 4-[[4-[4-[4-(2,2,2,2-trifluoroethyl)piperazin-1-yl]phenyl]-1H-pyrrolo[3,2-c]pyridin-2-yl]methyl]morpholine] | 34.9
18 | CC(C)N1CCN(c2ccc(-c3nc(C(F)(F)F)cc4[nH]c(CN5CCOCC5)cc34)cc2)CC1 [Example A32, 4-[[4-[4-(4-isopropylpiperazin-1-yl)phenyl]-6-(trifluoromethyl)-1H-pyrrolo[3,2-c]pyridin-2-yl]methyl] morpholine] | 49
19 | COC(=O)[C@H]1CCCN1Cc1cc2c(-c3ccc(N4CCN(C(C)C)CC4)cc3)nccc2[nH]1 [Example A73, methyl (2R)-1-[[4-[4-(4-isopropyl-piperazin-1-yl)phenyl]-1H-pyrrolo[3,2-c]pyridin-2-yl]methyl]pyrrolidine-2-carboxylate] | 72
20 | CC1(O)CCN(c2ccc(-c3nccc4[nH]c(CN5CCOCC5)cc34)cc2)CC1 [Example A10, 4-methyl-1-[4-[2-(morpholinomethyl)-1H-pyrrolo[3,2-c]pyridin-4-yl]phenyl] piperidin-4-ol] | 29
21 | CC(C)N1CCN(c2ncc(-c3nccc4[nH]c(CN5CCOCC5)cc34)s2)CC1 [Example A58, 4-[[4-[2-(4-isopropylpiperazin-1-yl)thiazol-5-yl]-1H-pyrrolo[3,2-c]pyridin-2-yl]methyl]morpholine] | 98
22 | CC(C)N1CCN(C(=O)c2ccc(-c3nccc4[nH]c(CN5CCOCC5)cc34)cc2)CC1 [Example A19, (4-isopropylpiperazin-1-yl)-[4-[2-(morpholinomethyl)-1H-pyrrolo[3,2-c]pyridin-4-yl]phenyl] methanone] | 90
23 | c1cc2[nH]c(CN3CCOCC3)cc2c(-c2ccc(N3CCOCC3)cc2)n1 [Example A83, 4-[4-[2-(morpholinomethyl)-1H-pyrrolo[3,2-c]pyridin-4-yl]phenyl]morpholine] | 29.5
24 | c1cc2[nH]c(CN3CCOCC3)cc2c(-c2cnn(C3CCNCC3)c2)n1 [Example A45, 4-[[4-[1-(4-piperidyl)pyrazol-4-yl]-1H-pyrrolo [3,2-c]pyridin-2-yl]methyl] morpholine] | 76.1

— US9643967B2, “Pyrrolo[3,2-c]pyridine derivatives as TLR inhibitors” (TAKEDA PHARMACEUTICAL COMPANY LIMITED, priority 2013, dated 2017)
